{"source": "patent US20070112025A1", "about": "“Use of kynurenine-3-hydroxylase inhibitors for the preparation of medicaments for the treatment of l-dopa induced movement disorders, dyskinesias, drug addiction, pain and cataract” (priority 2003, published 2007)", "key": {"lens": {"tested_on": "lens", "assay": "In vivo model of cataract (chronic naphtalene treatment)", "experimental": "(§1) We evaluated the effect of a treatment with inhibitors of Kyn-3OHase (Ro-618048) and of 2-(3,4-Dichloro-benzoyl)-cyclopropanecarboxylic acid (UPF-648, 50 mg/kg; ip) in an in vivo (chronic naphtalene treatment) and an in vitro models of cataract (culture lenses exposed to different insults)."}, "culture lenses": {"tested_on": "culture lenses", "assay": "In vitro models of cataract (culture lenses exposed to different insults)", "experimental": "as §1"}, "glutamate release": {"tested_on": "glutamate release", "conditions": "KYNA 30-100 nM; without modifying ionotropic or metabotropic GLU receptor function; cited from earlier work"}, "6-OHDA lesioned rats": {"tested_on": "6-OHDA lesioned rats", "assay": "Rotational response to chronic L-DOPA in 6-OHDA lesioned rats (wearing-off model)", "format": "in vivo, rat", "experimental": "In 6-OHDA lesioned rats, a commonly used model of PD, motor response to L-DOPA decreases after chronic treatment. This effect mimics the “wearing-off” phenomenon observed in parkinsonian patients under chronic treatment with L-DOPA (Boldry et al., Brain Res 1995 Sep. 18; 692: 259-64).\nIn this rat model we evaluated the effect of Ro-618048 (40 mg/kg; ip) and of 2-(3,4-Dichloro-benzoyl)-cyclopropanecarboxylic acid (UPF-648, 50 mg/kg; ip), on the rotational response to chronic L-DOPA (28 days treatment, […]; ip) in comparison to MK-801 (0.1 mg/kg; ip). […]\nTo measure rotational behavior, rats were placed in circular cages and tethered to an automated rotometer. The number of complete turns performed in each 5-min period was recorded by a computer. […]\nRats were injected intraperitoneally twice a day at 8:00 and 16:00 for 28 consecutive days with either a combination of L-DOPA methylester (50 mg/kg) and the peripheral decarboxylase inhibitor benserazide (12.5 mg/kg) or saline. […] The duration of the response was measured by the time between the first 5 min interval when the rate of turning attained half its eventual average value and the first interval when the rate again declined to half its average values.\nData were analyzed by analysis of variance followed by Duncan's new multiple range test for post-hoc comparisons."}, "[1]": {"tested_on": "MPTP-treated cynomolgus (macaca fascicularis) monkeys", "assay": "L-DOPA induced dyskinesia model in parkinsonian monkeys", "format": "in vivo, cynomolgus monkey", "experimental": "The studies were performed in five to six female MPTP-treated cynomolgus (macaca fascicularis) monkeys (weighing 2.9 to 5.0 kg) with a stable parkinsonian syndrome and reproducible dyskinesias to L-Dopa. The animals were handled in accordance with the National Institute of Health Guide for the Care and Use of Laboratory Animals and all procedures were approved by the Institutional Animal Care Committee of Laval University. They were housed separately in observation cages and exposed to a 12 hour light/dark cycle (lights on 6.0 a.m.-6.0 p.m.) in a temperature controlled room, 23±1° C. They were fed once daily in the afternoon with pellets and fruits, and had free access to water.\nRO-618048 was administered alone and simultaneously with L-Dopa. In particular: • A) RO-618048 at increasing doses, 10, 30, 100 mg/kg was administered alone on three consecutive days and compared with vehicle administered before and after treatments. • B) RO-618048 at increasing doses, 10, 30, 100 mg/kg was given simultaneously with L-Dopa/benserazide on three consecutive days and compared with L-Dopa, which was also given on three consecutive days. During the interval between the treatments, to maintain priming, the animals received an oral treatment with L-Dopa/benserazide (100/25 mg; Prolopa.). Compounds\nRO-618048 at increasing doses, 10, 30, 100 mg/kg was suspended in 0.1% (vol/vol) Tween 80/sterile water and homogenized in a glass homogeniser and mixed overnight until administration, as a homogeneous suspension. The maximum volume of drug suspension administered by oral gavage (p.o) at each increasing dose was 10, 20 and 40 ml respectively. As a control, a suspension of 0.1% (vol/vol) Tween 80/sterile water was administered p.o. (2 ml/kg). L-Dopa methyl ester (Sigma, St. Louis, Mo.); always together with benserazide 50 mg, (Hoffmann-La Roche, Montreal, Quebec), at doses ranging between 25 to 30 mg/kg (based on the threshold concentration for each animal) was dissolved in 1 ml of 0.9% sterile saline and administered s.c. alone or in combination with RO-618048.\nThe severity of dyskinesias was rated for the face, neck, trunk, arms and legs in the following way: None=0; Mild=1; Moderate=2; Severe=3, based on the assessment of the amplitude, interference with normal motor activity and the frequency of the abnormal movements, according to a scale which we have used in several published studies. The dyskinetic score obtained was the sum of the scores for all body segments for a maximal score of 21 points. The mean dyskinetic score for each animal has been calculated as the average of all the scores obtained for 3 hours or for the total duration of the effect of the drugs.\nThe mean Parkinsonian scores and also the mean dyskinetic scores obtained for each monkey, during 3 hours or the total duration of the effect of a given drug, were analysed using the nonparametric Friedman's test followed by multiple comparisons based on Friedman rank sums."}, "Male Wistar rats": {"tested_on": "Male Wistar rats", "assay": "Cocaine-induced behavioral sensitization (locomotor activity)", "format": "in vivo, rat", "experimental": "We evaluated the effect of Ro-618048 (40 mg/kg; ip) and of 2-(3,4-Dichloro-benzoyl)-cyclopropanecarboxylic acid (UPF-648, 50 mg/kg; ip) in a model of cocaine-induced behavioral sensitization in rat.\nMale Wistar rats (Charles River, Kingston, N.Y.) weighing 200-250 g upon arrival were used. Locomotor activity was measured in sixteen identical metal wire hanging cages each measuring 36 cm (L)×25 cm (W)×20 cm (H). Each cage contained two sets of infrared emitter-detector photocells positioned along the long axis 1-cm above the grid floor and 8 cm from the front and back of the cage. Background noise was provided by a white noise generator. Movement within the cages produced photocell interruptions, which were automatically recorded by an IBM-compatible computer.\nAnimals were habituated to the locomotor activity chambers for 2-3 consecutive days before the experiment. Rats received 5 daily IP injections of cocaine (15 mg/kg) or saline and either the Kyn-3OHase inhibitor Ro-618048 (40 mg/kg ip) or its vehicle and locomotor activity was recorded for 3 hours. Ten days after the last injection of cocaine or saline (day 15), the animals were challenged with 15 mg/kg of cocaine in absence of Ro-618048 and locomotor activity was again monitored for 3 h. […]"}, "Crl:CD-1 mice": {"tested_on": "Crl:CD-1 mice", "assay": "Mice formalin test", "format": "in vivo, mouse", "conditions": "40 mg/kg ip 15 min before formalin, p<0.05", "experimental": "(§2) We evaluated the analgesic activity of Ro-618048 (40 mg/kg; ip) and of 2-(3,4-Dichloro-benzoyl)-cyclopropanecarboxylic acid (UPF-648, 50 mg/kg; ip) in animal models of inflammatory and neuropathic pain (formalin test in mice) as well as in acute pain test (tail flick in rats).\n(§3) Adult male Wistar rats weighing 175-200 g, and Crl:CD-1 mice weighing 22-25 g at testing were used (Harlan-Nossan, Italy).\nThe formalin test in mouse is a procedure used to model neurogenic inflammation and continuous pain (Shibata et al., 1989, Pain 38: 347-352) as well as some features of post-injury pain in man (Dallel et al., 1995, Pain. 61: 11-16).\nAccording to a modified protocol from Rosland et al., (1990, Pain 42: 235-242) mice were injected subcutaneously (s.c.) with 20 μl of 2.7% solution of formalin into the plantar surface of left hindpaw and placed immediately into clear PVC observation chambers (23×12×13 cm). Pain behavior was quantified by counting the cumulative licking time (sec) of the injected paw. Measurements were taken during the early phase (0-5 min) and late phase (30-40 min) after formalin injection (Tjolsen et al., 1992, Pain 51: 5-17). […]\nMice Formalin test. […] Data were evaluated by analysis of variance followed by Dunnett's t-test.\nThe cumulative licking time (sec) of the injected paw was recorded during the early phase (0-5 min) and late phase (30-40 min) after formalin injection."}, "Wistar rats": {"tested_on": "Wistar rats", "assay": "Tail flick test", "format": "in vivo, rat", "conditions": "40 mg/kg ip, 90 min after administration; control 3.9±0.4 sec", "experimental": "as §2, §3\nThe tail flick test measures the thermal nociceptive threshold defined as the latency required to elicit a tail response to heat. The test was performed according to the method described by D'Amour and Smith (1941, J. Pharmacol. Exp. Ther. 72:74-79) using an analgesiometer (U. Basile, Italy). Rats were treated ip with the drug (Ro-618048 40 mg/kg) or vehicle and 90 min after, each animal was placed on a platform and the tail was exposed to a focused beam of radiant heat approximately 3 cm from the tip. The beam light intensity was adjusted to produce a reaction latency of 3-5 sec in control rats. The thermal nociceptive threshold was defined as the latency required to elicit a tail response. A 20 sec cut-off was used to prevent tissue damage.\nTail Flick Test. The latency was defined as the interval of time (sec) between the onset of the thermal stimulus and the flick of the tail. Data were evaluated by analysis of variance followed by Dunnett's t-test."}, "MTPP treated monkeys": {"tested_on": "MTPP treated monkeys", "conditions": "NMDA antagonist in MTPP treated monkeys; cited from earlier work"}, "[2]": {"conditions": "RO-618048 alone 10, 30, 100 mg/kg p.o., compared with vehicle"}}, "data": [{"smiles": "O=C(O)C1CC1C(=O)c1ccc(Cl)c(Cl)c1", "note": "(stereo not drawn) [UPF-648, 2-(3,4-Dichloro-benzoyl)-cyclopropanecarboxylic acid]", "values": [{"measurement": "degree of opacification of the lens", "setting": "lens", "value": "reduce the degree of opacification of the lens"}, {"measurement": "degree of opacification of the lens", "setting": "culture lenses", "value": "reduce the degree of opacification of the lens"}]}, {"smiles": "O=C(O)c1cc(=O)c2ccccc2[nH]1", "note": "[KYNA, kynurenic acid]", "values": [{"measurement": "glutamate release", "setting": "glutamate release", "value": "strongly inhibits glutamate release"}]}, {"smiles": "COc1ccc(S(=O)(=O)Nc2nc(-c3cccc([N+](=O)[O-])c3)cs2)cc1OC", "note": "[Ro-618048]", "values": [{"measurement": "decreased rotational response to L-DOPA (duration)", "setting": "6-OHDA lesioned rats; Ro-618048 40 mg/kg ip, acute co-administration on 29th day after 28 days L-DOPA", "value": "reversed"}, {"measurement": "reduction of dyskinetic response to L-Dopa", "setting": "[1]; 30 mg/kg p.o. simultaneously with L-Dopa/benserazide (25 to 30 mg/kg)", "value": "about 20%"}, {"measurement": "reduction of dyskinetic response to L-Dopa", "setting": "[1]; 100 mg/kg p.o. simultaneously with L-Dopa/benserazide (25 to 30 mg/kg)", "value": "about 20%"}, {"measurement": "Parkinsonian score", "setting": "[1]; [2]", "value": "did not have any effect"}, {"measurement": "locomotor activity", "setting": "[1]; [2]", "value": "did not have any effect"}, {"measurement": "effect on improvement of parkinsonism induced by L-Dopa", "setting": "[1]; acute RO-618048 with L-Dopa", "value": "without any negative effect"}, {"measurement": "increase of locomotor response to cocaine, fifth day vs first day", "setting": "Male Wistar rats; Ro-618048 40 mg/kg IP with cocaine 15 mg/kg daily for 5 days, vehicle 20% higher", "value": "did not show any significant increase"}, {"measurement": "increased locomotor activity response to cocaine challenge vs first day", "setting": "Male Wistar rats; challenge cocaine 15 mg/kg ten days after last injection, without Ro-618048, pretreated 40 mg/kg IP, vehicle 30% higher", "value": "did not"}, {"measurement": "cumulative licking time, early phase (0-5 min)", "setting": "Crl:CD-1 mice; control 106±4.39 sec", "value": "75 ± 5.5", "unit": "s"}, {"measurement": "cumulative licking time, late phase (30-40 min)", "setting": "Crl:CD-1 mice; control 123±12.8 sec", "value": "68 ± 14.3", "unit": "s"}, {"measurement": "tail flick response latency to noxious heat", "setting": "Wistar rats", "value": "6.1 ± 0.4", "unit": "s"}, {"measurement": "degree of opacification of the lens", "setting": "lens", "value": "reduce the degree of opacification of the lens"}, {"measurement": "degree of opacification of the lens", "setting": "culture lenses", "value": "reduce the degree of opacification of the lens"}]}, {"smiles": "C[C@]12N[C@H](Cc3ccccc31)c1ccccc12", "note": "[MK801]", "values": [{"measurement": "decreased rotational response to L-DOPA (duration)", "setting": "6-OHDA lesioned rats; MK801 0.1 mg/kg ip, 29th day after 28 days L-DOPA", "value": "similar"}, {"measurement": "L-DOPA induced dyskinesia", "setting": "MTPP treated monkeys", "value": "reduced L-DOPA induced dyskinesia"}]}]}
